# Test results: patent publication US20250064845A1, “COMPOSITION COMPRISING FLAVIN ADENINE DINUCLEOTIDE (FAD), L-GSH, ATP AND MYRISTIC ACID, ALONE OR WITH A DRUG” (BIO EVEN, priority 2023, published 2025)
# Experiments:
# [1] = test system: Pan02 transplanted pancreatic tumor; conditions: Pan02 tumor-bearing mice
# Method: Each mouse was subcutaneously treated with Pan02 cell suspension (5*10^5 cells) in the right axilla of the forelimb. […] Body weight was weighed every three days. The volume of the solid tumor was measured using a digital caliper every three days. The survival of animals was monitored and recorded daily.
# • The Pan02 mouse pancreatic cancer line was purchased from Shanghai Enzyme Research Biotechnology Co., Ltd. (Shanghai, China, Cell line No.: CC-Y2144) and stored at −80° C. after arrival. The Pan02 cells were cultured in DMEM supplemented with 10% FBS (v/v), 100 U/ml penicillin G (Sigma-Aldrich, USA), and 100 μg/mL streptomycin (Sigma-Aldrich, USA). The cultures were maintained in a humidified incubator at 37° C. and 5% CO2.
# • Different test drugs were administered intravenously (i.v.) and intraperitoneally (i.p.) once every other day at 10:00 am. A or B drugs were injected into the tail vein first, and 5-FU was injected intraperitoneally 24 h later.
# • Each mouse was subcutaneously treated with 0.1 mL cell suspension (5*10^5 cells) in the right axilla of the forelimb. When the tumor size increases to 100 mm^3-150 mm^3, mice were randomly divided into treatment groups: the model group (n=10), the A group (n=10), the B group (n=10), the 5-FU group (1.5 mg/kg, n=10), the A+5-FU group (1.5 mg/kg, n=10), the B+5-FU group (1.5 mg/kg, n=10) (Table 1).
# • Body weight was weighed every three days. The length and width of the solid tumor was measured with a digital caliper every three days. Tumor volume was calculated by the modified ellipsoidal formula: V =n/6 x (length x width2). The survival time of animals was monitored and recorded daily. […] The percent survival (%) was calculated using the following equations: percent survival (%)=[(10-numbers of mice died in each group)/10]*100%.
# [2] = test system: H22 transplanted tumor; conditions: H22 tumor-bearing mice
# Method: Body weight was weighed every three days.
# • Species: Rodent; Strain: BALB/c mice; Grade: SPF; Gender: Female; Age: 5-6 weeks.
# • The H22 mouse hepatoma cell line was purchased from Wuhan Procell Life Technology Co., Ltd. (Wuhan, China, Contract No.: XD-000-2022-03-30-0029) and stored at −80° C. after arrival.
# Ascitic tumor fluid was then diluted with matrigel to adjust the cell concentration to 2*10^7 cells/mL.
smiles,measurement,setting,value
"O=c1[nH]cc(F)c(=O)[nH]1 [Composition 5-FU, 5-fluorouracil]",tumor volume / antitumor effect,"[1]; 82 days, 5-FU 1.5 mg/kg",significantly decreased tumor volume
same,mortality rate of mice on the 82nd day,"[1]; A or B 100 μL i.v., 5-FU 1.5 mg/kg i.p., once every other day, n=10",90%
same,median survival time,"[1]; A or B 100 μL i.v., 5-FU 1.5 mg/kg i.p., once every other day, test 82 days, longer survival defaulted as 82 days",53.5 days
same,mortality rate of mice on the 22nd day,[2]; 5-FU alone 2.5 mg/kg i.p. once every two days,30%
same,median survival time,"[2]; 5-FU alone 2.5 mg/kg, longer survival defaulted as 22 days",22 days
